From patent publication US12384751B2, “Allosteric activators of the ALPHA1A-adrenergic receptor” (The Cleveland Clinic Foundation, priority 2019, dated 2025)
“Also recorded” adds a separate entry of the source.

What was measured:
α1A-AR = molecular target: T1, α1A-AR (Homo sapiens, UniProt P35348); test: Rapid cAMP screening assay for PAM effects (norepinephrine constant at Emax); assay type: cell-based, human and mouse; conditions: norepinephrine constant at 10^−4M; range over cell lines (fibroblasts, neuroblastoma, cardiomyocytes)
T1 sequence (P35348 1-466): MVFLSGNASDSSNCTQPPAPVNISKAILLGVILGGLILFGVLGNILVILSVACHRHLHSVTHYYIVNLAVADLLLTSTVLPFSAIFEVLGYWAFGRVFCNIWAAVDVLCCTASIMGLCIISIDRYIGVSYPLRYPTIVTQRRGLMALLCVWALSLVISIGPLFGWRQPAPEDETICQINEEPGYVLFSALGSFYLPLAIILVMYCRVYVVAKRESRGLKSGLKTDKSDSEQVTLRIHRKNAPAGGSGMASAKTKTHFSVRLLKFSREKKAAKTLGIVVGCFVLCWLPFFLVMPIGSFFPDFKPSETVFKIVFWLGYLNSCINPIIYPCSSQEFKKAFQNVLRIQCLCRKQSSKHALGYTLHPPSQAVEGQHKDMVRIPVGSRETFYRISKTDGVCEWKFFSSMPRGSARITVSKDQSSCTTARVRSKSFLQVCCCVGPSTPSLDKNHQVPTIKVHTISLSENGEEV
Method: cAMP assay: Cells expressing a single α1-adrenergic receptor subtype are washed and re-plated into 24-well plates in DMEM media without serum at approximately 2.4×10^4 cells/well. Cells are allowed to rest till the next day in a CO2 incubator at 37° C. The cells are washed twice with DMEM (no serum), then 1 ml of DMEM is added to each well. Cells are pre-incubated for 45 mins-1 hour at 37° C. in a CO2 incubator with 10 uM propranolol, followed by 100 uM IBMX for 30 minutes. Final DMSO concentration is at 0.05%. Norepinephrine or epinephrine is added in a dose response (1 dose per well) in addition to one of the Compounds 1-10 at one concentration (i.e. 10^−5M). Cells are incubated for another 30 mins at 37° C. in a CO2 incubator. The reaction is concluded by aspirating the media and adding 0.1M HCL. The mixture is incubated for 20 mins at room temperature. The cells are scraped and suspended until homogenous. The mixture is centrifuged at 1000 g for 10 mins and the supernatant assayed the same day according to a manufacturer's cAMP kit (Cayman Select Cyclic AMP EIA kit #501040).
In this assay, the concentration of norepinephrine is held constant at its Emax (10^−4M) (FIG. 10, red line). Compound 3 is then added in a dose-response (FIG. 10, blue line). Any signal above the red line is potentiation. […]

α1B-AR = molecular target: T2, α1B-AR (Homo sapiens, UniProt P35368); test: Effect of compound on binding affinity of norepinephrine at α1B-AR; conditions: 10^−5M
T2 construct: expressed in transfected cells; host or cells: Rat-1 fibroblast cells
T2 sequence (P35368 1-520): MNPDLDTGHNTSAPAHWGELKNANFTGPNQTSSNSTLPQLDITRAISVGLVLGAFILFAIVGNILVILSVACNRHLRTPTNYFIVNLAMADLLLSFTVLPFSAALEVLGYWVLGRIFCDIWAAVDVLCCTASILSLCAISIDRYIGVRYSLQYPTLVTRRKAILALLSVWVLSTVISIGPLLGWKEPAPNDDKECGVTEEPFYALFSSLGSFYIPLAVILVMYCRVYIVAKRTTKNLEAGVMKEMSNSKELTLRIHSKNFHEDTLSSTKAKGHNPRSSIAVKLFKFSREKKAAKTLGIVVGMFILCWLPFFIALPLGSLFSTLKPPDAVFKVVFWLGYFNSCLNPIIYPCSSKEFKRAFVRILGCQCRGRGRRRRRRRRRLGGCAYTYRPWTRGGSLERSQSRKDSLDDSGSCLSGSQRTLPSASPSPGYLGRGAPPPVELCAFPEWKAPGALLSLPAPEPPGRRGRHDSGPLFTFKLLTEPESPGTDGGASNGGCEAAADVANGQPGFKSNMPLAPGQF
Method: Competition binding assays: These compounds were characterized for their ligand binding properties at the α1-AR subtypes. The binding affinities of Compounds 1-10 were determined in a series of competition-binding experiments with the α1-AR-selective antagonist [^125I]HEAT as the radioligand. Assays were performed in duplicate in HEM buffer, in a total assay volume of 1000 μl. Radioligand binding assays are composed of 5 ug of membranes, harvested from Rat-1 fibroblast cells expressing only one of the alpha1-AR subtypes, HEM buffer containing GTP (composed of 20 mM HEPES, pH 7.4, 1.4 mM EGTA, 12.5 mM MgCl2, pH to 7.4), 0.5 mM GTP, 35-80 pM^125I-HEAT, and various doses of norepinephrine or epinephrine and incubated with shaking at 25° C. for 1-2 hours. The above conditions will convert all the conformations of the receptor into a single low affinity site. To show both high and low affinity sites of the receptor (typically seen with GPCR agonists), the GTP is removed from the binding buffer. Nonspecific binding was determined experimentally in the presence of 10^−4 M phentolamine. Unbound radioactivity was separated from membrane-bound radioactivity by filtration through Whatman GF/C filter paper. […] Bound radioactivity remaining on the filters was counted on an ICN gamma counter operating at 79.8% efficiency. Data are analyzed using Graphpad Prism. […]

CC(C)Cc1c(OCC2=NCCN2)cccc1N(C)S(C)(=O)=O [Compound 3, N-[3-(4,5-Dihydro-1H-imidazol-2-ylmethoxy)-2-isobutyl-phenyl]-N-methyl-methanesulfonamide]
Emax of PAM potentiation (α1A-AR): 35-60 % of the norepinephrine's maximum response
effect on affinity of norepinephrine at the α1B-AR (α1B-AR): no effect; also recorded: does not increase the affinity of norepinephrine
